Results: US20240189438A1, “DRUG CONJUGATE OF GLUCOCORTICOID RECEPTOR AGONIST, AND APPLICATION THEREOF IN MEDICINE” (Shanghai Senhui Medicine Co., Ltd., priority 2021, published 2024)

Assays:
[1] = tested on: GRE reporter gene in A549 cells; test: GRE reporter gene assay in A549 cells (MMTV-Luc); format: cell-based; details: 24 h; for EC50: Homo sapiens
Method: 4. GRE reporter gene assay A549 cells were plated (40,000 cells/96-well plate), transfected with pGL4.36 (MMTV-Luc, 100 ng/well) using lipo3000, cultured overnight and then incubated with different concentrations of small-molecule steroids. After 24 h, the expression of luciferase in the reporter gene system was detected using the Bright-Glo (promega) assay reagent.

human recombinant GR = target: T1, human recombinant GR (Homo sapiens, UniProt P04150); test: human glucocorticoid NHR (radiolabeled agonist) binding assay; details: competition with 5 nM [3H]dexamethasone, 4° C., 24 h
T1 sequence (P04150 1-777): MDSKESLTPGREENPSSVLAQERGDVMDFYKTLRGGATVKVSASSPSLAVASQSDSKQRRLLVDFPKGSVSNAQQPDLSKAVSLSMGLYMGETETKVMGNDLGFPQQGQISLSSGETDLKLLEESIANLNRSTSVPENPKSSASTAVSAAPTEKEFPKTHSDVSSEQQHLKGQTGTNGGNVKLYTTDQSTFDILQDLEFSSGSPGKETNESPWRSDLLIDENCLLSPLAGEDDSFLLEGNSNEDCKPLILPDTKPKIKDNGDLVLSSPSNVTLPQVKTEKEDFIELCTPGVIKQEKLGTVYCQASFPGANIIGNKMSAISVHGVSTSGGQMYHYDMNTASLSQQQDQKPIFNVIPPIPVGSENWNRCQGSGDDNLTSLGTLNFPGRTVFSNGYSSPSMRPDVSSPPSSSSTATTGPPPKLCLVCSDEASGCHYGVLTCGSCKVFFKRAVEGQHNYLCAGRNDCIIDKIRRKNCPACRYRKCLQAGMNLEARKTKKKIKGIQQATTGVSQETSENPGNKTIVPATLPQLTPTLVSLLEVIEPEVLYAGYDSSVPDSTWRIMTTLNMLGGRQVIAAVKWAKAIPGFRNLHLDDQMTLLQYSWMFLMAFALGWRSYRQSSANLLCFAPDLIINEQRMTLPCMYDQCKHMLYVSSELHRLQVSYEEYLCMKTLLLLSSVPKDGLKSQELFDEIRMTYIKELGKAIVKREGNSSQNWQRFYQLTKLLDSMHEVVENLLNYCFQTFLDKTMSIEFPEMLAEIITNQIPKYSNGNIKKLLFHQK
Method: 2. Glucocorticoid Receptor Binding Assay
The assays were based on the following principle: Different concentrations of a small-molecule steroid and 5 nM [3H]dexamethasone are incubated with human recombinant GR at 4° C. for 24 h. The small-molecule steroid competes with [3H]dexamethasone for binding to human GR. The binding activity of the small-molecule steroid for GR can be calculated by counting the number of [3H]dexamethasone molecules that bind specifically to the receptor.

[2] = target: T2, mineralocorticoid receptor (MR) (Homo sapiens, UniProt P08235); test: Mineralocorticoid receptor agonist activity, PathHunter NHR nuclear translocation assay; format: cell-based; details: PathHunter NHR CHO-K1 cells
T2 construct: expressed in transfected cells; host or cells: PathHunter NHR CHO-K1 cells
T2 sequence (P08235 1-984): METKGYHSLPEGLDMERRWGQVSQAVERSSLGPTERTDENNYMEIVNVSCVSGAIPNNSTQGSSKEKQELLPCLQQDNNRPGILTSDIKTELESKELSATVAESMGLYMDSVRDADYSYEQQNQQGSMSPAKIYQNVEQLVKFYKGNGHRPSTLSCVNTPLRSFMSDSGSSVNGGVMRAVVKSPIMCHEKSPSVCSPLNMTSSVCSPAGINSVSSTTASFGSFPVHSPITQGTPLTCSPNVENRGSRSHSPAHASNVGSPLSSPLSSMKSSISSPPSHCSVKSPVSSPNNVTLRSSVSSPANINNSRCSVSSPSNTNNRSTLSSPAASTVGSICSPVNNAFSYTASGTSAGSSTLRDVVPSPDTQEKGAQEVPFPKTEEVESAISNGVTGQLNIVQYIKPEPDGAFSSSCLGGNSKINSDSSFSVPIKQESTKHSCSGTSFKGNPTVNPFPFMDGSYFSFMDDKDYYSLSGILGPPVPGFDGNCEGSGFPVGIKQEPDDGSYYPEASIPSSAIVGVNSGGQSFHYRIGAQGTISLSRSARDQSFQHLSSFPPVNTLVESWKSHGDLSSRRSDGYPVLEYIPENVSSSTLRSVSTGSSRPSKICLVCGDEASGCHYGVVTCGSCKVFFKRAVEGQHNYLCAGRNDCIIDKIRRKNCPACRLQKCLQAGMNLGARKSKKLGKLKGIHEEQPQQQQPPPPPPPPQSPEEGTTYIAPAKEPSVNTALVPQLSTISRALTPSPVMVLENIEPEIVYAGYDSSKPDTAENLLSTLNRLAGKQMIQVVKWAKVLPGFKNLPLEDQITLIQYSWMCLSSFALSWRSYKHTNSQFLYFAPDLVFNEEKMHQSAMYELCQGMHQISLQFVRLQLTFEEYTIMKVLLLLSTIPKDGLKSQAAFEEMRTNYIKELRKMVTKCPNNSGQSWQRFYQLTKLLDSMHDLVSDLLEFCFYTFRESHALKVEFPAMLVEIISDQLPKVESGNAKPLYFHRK
Method: 3. Mineralocorticoid Receptor Agonist Activity Assay The mineralocorticoid receptor (MR) agonist activity of small-molecule steroids was tested using a PathHunter® NHR nuclear translocation assay. PathHunter NHR CHO-K1 cells were plated onto a 384-well white-wall microplate and co-incubated with test small-molecule steroids at 37° C. in 5% CO2 to induce reactions. Assay signals were generated using the PathHunter assay reagent mix. After one hour of incubation at room temperature, chemiluminescent signals were detected. The data were analyzed using four-parameter curve fitting to generate EC50 values.

[3] = tested on: mouse collagen antibody-induced arthritis (CAIA) model; test: Mouse collagen antibody-induced arthritis (CAIA) model; format: in vivo; details: 10 mg/kg intraperitoneally twice a week; FIG. 6
Method: Male balb/c mice, 6 w, purchased from the Laboratory Animal Management Department, Shanghai Institute of Planned Parenthood Research. Housing environment: SPF; production license SCXK (Shanghai) 2018-0006; Balb/c mouse certification number: 20180006023393.
Upon arrival, the test animals were acclimatized for 7 days and randomly grouped. On day 0, each group of mice was intraperitoneally injected with 1.5 mg/mouse of type II collagen antibody cocktail (purchased from Chondrex Inc.) for modeling except for the control group. On day 3, each group of mice was intraperitoneally injected with […] of LPS (100 μL) to boost the immune response except for the control group. Administration to each group of mice began on day 5, and limb arthritis was scored every 1-3 days. Mice were dosed according to the following administration regimens. The severity of arthritis in each group of mice was semi-quantitatively scored every 1-3 days and further, the anti-inflammatory activity of anti-TNF-ADCs was evaluated.

Compound | GRE reporter gene Emax [1] [RLU] | EC50 [1] [nM] | IC50 (human recombinant GR) [nM] | EC50 [2] [nM] | anti-inflammatory activity in the CAIA model [3]
C[C@]12C=CC(=O)C=C1CC[C@@H]1[C@@H]2[C@@H](O)C[C@@]2(C)[C@H]1C[C@H]1O[C@@H](c3ccc(Cc4cccc(N)c4)cc3)O[C@]12C(=O)CO [A-A, reference compound] | 1.45E6 | 0.6 |  |  | 
C[C@]12C=CC(=O)C=C1CC[C@@H]1[C@@H]2[C@@H](O)C[C@@]2(C)[C@H]1C[C@H]1O[C@@H](c3ccc(-c4ccc(-c5cccc(N)c5)cc4)cc3)O[C@]12C(=O)CO [Compound 1-A] | 7.67E5 | 22.6 | 4.37 | > 200000 | 
C[C@]12C=CC(=O)C=C1CC[C@@H]1[C@@H]2[C@@H](O)C[C@@]2(C)[C@H]1C[C@H]1O[C@@H](c3ccc(C(=O)c4cccc(N)c4)cc3)O[C@]12C(=O)CO [Compound 2-A] |  |  | 6.69 | 220 | 
C[C@]12C=CC(=O)C=C1CC[C@@H]1[C@@H]2[C@@H](O)C[C@@]2(C)[C@H]1C[C@H]1O[C@@H](c3ccc(Cc4cccc5c(N)cccc45)cc3)O[C@]12C(=O)CO [Compound 3-A] | 1.53E6 | 1.47 | 2.24 | 190 | 
C[C@]12C=CC(=O)C=C1CC[C@@H]1[C@@H]2[C@@H](O)C[C@@]2(C)[C@H]1C[C@H]1O[C@@H](c3ccc(C(F)(F)c4cccc(N)c4)cc3)O[C@]12C(=O)CO [Compound 4-A] | 1.69E6 | 2.16 | 2.12 | 260 | 
C[C@]12C=CC(=O)C=C1CC[C@H]1[C@@H]3C[C@H]4O[C@@H](c5ccc(C(=O)c6cccc(N)c6)cc5)O[C@@]4(C(=O)CO)[C@@]3(C)C[C@H](O)[C@@]12F [Compound 5-A] | 2.3E7 | 4.3 | 5.23 |  | 
adalimumab [Humira] |  |  |  |  | weak anti-inflammatory activity
